{
  "source": "patent US11246834B2",
  "about": "“Nutraceutical or pharmaceutical composition for use in the treatment of polycystic ovary syndrome or of diseases or disorders related thereto” (S&R FARMACEUTICI S.P.A., priority 2016, dated 2022)",
  "key": {"HEK293 cells [1]": {"tested_on": "HEK293 cells", "assay": "MTT test of cellular metabolism under hydrogen peroxide oxidative stress", "assay_type": "cell-based, Human", "details": "HEK293, 300 μM hydrogen peroxide; 40 μM myoinositol + 100 μM D-chiro inositol and/or 10 μM resveratrol", "method": "(§1) The measures have been performed in triplicate. Left (MTT) and (cell count). Human embryonic kidney HEK293 cells were grown in adherence in a growth medium consisting of DMEM supplemented with 10% fetal bovine serum (FBS) for 24 hours before being treated with 300 μM hydrogen peroxide in the presence of inositols (MI-D-chirol, 40 μM myoinositol and 100 μM D-chiro inositol, molar ratio MI/D-ChiroI=0.4) or resveratrol (10 μM) or in a combination of inositol and resveratrol. The effects of treatments on cellular metabolism were evaluated by the MTT test, while on the proliferation by cell count in Burker's chamber and all effects were compared with growing cells under controlled conditions (DMEN+10% FBS). The inositol concentrations were chosen based on the myo-inositol (MI) plasma concentration (26), and considering the molar ratio MI/D-Chirol=0.4 according to the invention, while the resveratrol concentration (10 μM) was chosen considering the plasma concentration expected after a treatment regime with resveratrol supported on hydroxide such as that from […]. […] Oxidative stress aggravates the pathological state of PCOS along with hormonal imbalance (27)."}, "HEK293 cells [2]": {"tested_on": "HEK293 cells", "assay": "Cell count in Burker's chamber (proliferation) under hydrogen peroxide oxidative stress", "assay_type": "cell-based, Human", "details": "HEK293, 300 μM hydrogen peroxide; 40 μM myoinositol + 100 μM D-chiro inositol and/or 10 μM resveratrol", "method": "as §1"}},
  "data": [
    {"smiles": "Oc1ccc(C=Cc2cc(O)cc(O)c2)cc1", "note": "[resveratrol]", "values": [
      {"measurement": "effect on the anti-proliferative effect of oxidative stress, metabolic activity (MTT)", "setting": "HEK293 cells [1]", "result": "only partially counteracted"},
      {"measurement": "effect on the anti-proliferative effect of oxidative stress, cell number (cell count)", "setting": "HEK293 cells [2]", "result": "only partially counteracted"}
    ]}
  ]
}
